These compounds were tested on NF-kB transcriptional activity in HEK-293-NF-kB-Luc cell line overexpressing MALT1 (assay: NF-kB reporter assay (luciferase, MALT1 stably overexpressed)). Conditions: Homo sapiens, 24 h, HEK-293-NF-kB-Luc cells stably overexpressing MALT1, 24 h treatment, Bright Glo luminescence; read-out: NF-kB inhibition IC50.
Assay type: cell-based
Method: The NF-⇐B reporter assay was performed to screen for MALT1 inhibition mediated reduction in the NF-⇐B transcriptional activity. For this purpose, MALT1 was stably overexpressed in HEK-293—NF-⇐B-Luc cell line. Cells were seeded in poly-D-lysine coated 96-well plates in a culture medium containing the selection markers (DMEM+10% FBS+50 |g/ml Hygromycin+500 |g/ml Geniticin) and allowed to adhere overnight. On the following day, cells were treated with various concentrations of test compounds for 24 h. After 24 h of treatment with test compounds, media was removed from each well and Bright Glo™ (Promega, USA) substrate was added and incubated for further 10 min at ambient temperature. Luminescence was measured for detection of NF-⇐B reporter activity. RLUs (Relative Luminescence Units) were directly proportional to the NF-⇐B activity. % inhibition of NF-⇐B activity was calculated relative to the samples containing media with 0.1% DMSO alone as per the following formula

Row | Compound | IC50
1 | CCOC(C)c1c(NC(=O)Nc2ccc(-n3nccn3)c(Cl)c2)cnc2sc(C)nc12 (racemic) [Compound 161, 1-(3-Chloro-4-(2H-1,2,3-triazol-2-yl)phenyl)-3-(7-(1-ethoxyethyl)-2-methylthiazolo[5,4-b]pyridin-6-yl)urea] | 1 to 100 nM
2 | COc1nc(-n2ccnn2)c(Cl)cc1NC(=O)Nc1cnc2sc(C)nc2c1C(C)OC (single isomer, unassigned) [Compound 91a, 1-(5-Chloro-2-methoxy-6-(1H-1,2,3-triazol-1-yl)pyridin-3-yl)-3-(7-(1-methoxyethyl)-2-methylthiazolo[5,4-b]pyridin-6-yl)urea] | 1 to 100 nM
3 | COC(C)(c1c(NC(=O)Nc2cnc(-n3nccn3)c(C(F)(F)F)c2)cnc2sc(C)nc12)C1CC1 (single isomer, unassigned) [Compound 93a, 1-(6-(2H-1,2,3-triazol-2-yl)-5-(trifluoromethyl)pyridin-3-yl)-3-(7-(1-cyclopropyl-1-methoxyethyl)-2-methylthiazolo[5,4-b]pyridin-6-yl)urea] | 1 to 100 nM
4 | COc1ccc(NC(=O)Nc2cnc3sc(C)nc3c2C(C)OC)cc1Cl (single isomer, unassigned) [Compound 118b, 1-(3-chloro-4-methoxyphenyl)-3-(7-(1-methoxyethyl)-2-methylthiazolo[5,4-b]pyridin-6-yl)urea] | 101 to 500 nM
5 | COc1ncc(Cl)cc1NC(=O)Nc1cnc2sc(C)nc2c1C(C)OC (single isomer, unassigned) [Compound 120b, 1-(5-chloro-2-methoxypyridin-3-yl)-3-(7-(1-methoxyethyl)-2-methylthiazolo[5,4-b]pyridin-6-yl)urea] | 1 to 100 nM
6 | COC(C)c1c(NC(=O)Nc2cnc(-n3ccnn3)c(Cl)c2)cnc2sc(C)nc12 (single isomer, unassigned) [Compound 123b, 1-(5-Chloro-6-(1H-1,2,3-triazol-1-yl)pyridin-3-yl)-3-(7-(1-methoxyethyl)-2-methylthiazolo[5,4-b]pyridin-6-yl)urea] | 1 to 100 nM
7 | CCC(OC)c1c(NC(=O)Nc2cnc(OC)c(Cl)c2)cnc2sc(C)nc12 (single isomer, unassigned) [Compound 127a, 1-(5-Chloro-6-methoxypyridin-3-yl)-3-(7-(1-methoxypropyl)-2-methylthiazolo[5,4-b]pyridin-6-yl)urea] | 1 to 100 nM
8 | COC(C)c1c(NC(=O)Nc2cncc(C#N)c2)cnc2sc(C)nc12 (single isomer, unassigned) [Compound 129b, 1-(5-Cyanopyridin-3-yl)-3-(7-(1-methoxyethyl)-2-methylthiazolo[5,4-b]pyridin-6-yl)urea] | 1 to 100 nM
9 | COC(C)c1c(NC(=O)Nc2ccnc(C(F)(F)F)c2)cnc2sc(C)nc12 (single isomer, unassigned) [Compound 130b, 1-(7-(1-Methoxyethyl)-2-methylthiazolo[5,4-b]pyridin-6-yl)-3-(2-(trifluoromethyl)pyridin-4-yl)urea] | 1 to 100 nM
10 | COc1cc(-n2ccnn2)c(Cl)cc1NC(=O)Nc1cnc2sc(C)nc2c1C(C)OC (single isomer, unassigned) [Compound 132b, 1-(5-Chloro-2-methoxy-4-(1H-1,2,3-triazol-1-yl)phenyl)-3-(7-(1-methoxyethyl)-2-methylthiazolo[5,4-b]pyridin-6-yl)urea] | 1 to 100 nM
11 | COC(C)c1c(NC(=O)Nc2cc(C(F)(F)F)cn(C)c2=O)cnc2sc(C)nc12 (single isomer, unassigned) [Compound 133b, 1-(7-(1-methoxyethyl)-2-methylthiazolo[5,4-b]pyridin-6-yl)-3-(1-methyl-2-oxo-5-(trifluoromethyl)-1,2-dihydropyridin-3-yl)urea] | 501 to 1500 nM
12 | COc1ncc(NC(=O)Nc2cnc3sc(C)nc3c2C2CCCO2)cc1Cl (single isomer, unassigned) [Compound 135a, 1-(5-Chloro-6-methoxypyridin-3-yl)-3-(2-methyl-7-(tetrahydrofuran-2-yl)thiazolo[5,4-b]pyridin-6-yl)urea] | 1 to 100 nM
13 | Cc1nc2c(C3CCCO3)c(NC(=O)Nc3ccc(-n4nccn4)c(Cl)c3)cnc2s1 (single isomer, unassigned) [Compound 137a, 1-(3-Chloro-4-(2H-1,2,3-triazol-2-yl)phenyl)-3-(2-methyl-7-(tetrahydrofuran-2-yl)thiazolo[5,4-b]pyridin-6-yl)urea] | 1 to 100 nM
14 | Cc1nc2c(C3CCCCO3)c(NC(=O)Nc3cnc(-n4nccn4)c(Cl)c3)cnc2s1 (single isomer, unassigned) [Compound 140b, 1-(5-Chloro-6-(2H-1,2,3-triazol-2-yl)pyridin-3-yl)-3-(2-methyl-7-(tetra hydro-2H-pyran-2-yl)thiazolo[5,4-b]pyridin-6-yl)urea] | 101 to 500 nM
15 | COC(C)c1c(NC(=O)Nc2cnc(-n3ccnn3)c(C(F)(F)F)c2)cnc2sc(C)nc12 (single isomer, unassigned) [Compound 141a, 1-(6-(1H-1,2,3-Triazol-1-yl)-5-(trifluoromethyl)pyridin-3-yl)-3-(7-(1-methoxyethyl)-2-methylthiazolo[5,4-b]pyridin-6-yl)urea] | 1 to 100 nM
16 | CCC(OC)c1c(NC(=O)Nc2cnc(-n3nccn3)c(C(F)(F)F)c2)cnc2sc(C)nc12 (single isomer, unassigned) [Compound 146a, 1-(6-(2H-1,2,3-Triazol-2-yl)-5-(trifluoromethyl)pyridin-3-yl)-3-(7-(1-methoxypropyl)-2-methylthiazolo[5,4-b]pyridin-6-yl)urea] | 1 to 100 nM
17 | COC(C)c1c(NC(=O)Nc2cnc(-c3ncc(C)o3)c(Cl)c2)cnc2sc(C)nc12 (single isomer, unassigned) [Compound 148b, 1-(5-Chloro-6-(5-methyloxazol-2-yl)pyridin-3-yl)-3-(7-(1-methoxyethyl)-2-methylthiazolo[5,4-b]pyridin-6-yl)urea] | 1 to 100 nM
18 | COC(C)c1c(NC(=O)Nc2cnc(OC(F)F)c(Cl)c2)cnc2sc(C)nc12 (single isomer, unassigned) [Compound 149a, 1-(5-Chloro-6-(difluoromethoxy)pyridin-3-yl)-3-(7-(1-methoxyethyl)-2-methylthiazolo[5,4-b]pyridin-6-yl)urea] | 1 to 100 nM
19 | COC(c1c(NC(=O)Nc2cnc(-n3nccn3)c(Cl)c2)cnc2sc(C)nc12)C1CC1 (single isomer, unassigned) [Compound 154a, 1-(5-Chloro-6-(2H-1,2,3-triazol-2-yl)pyridin-3-yl)-3-(7-(cyclopropyl(methoxy)methyl)-2-methylthiazolo[5,4-b]pyridin-6-yl)urea] | 1 to 100 nM
20 | COc1nc(-n2nccn2)c(Cl)cc1NC(=O)Nc1cnc2sc(C)nc2c1C(OC)C1CC1 (single isomer, unassigned) [Compound 156a, 1-(5-Chloro-2-methoxy-6-(2H-1,2,3-triazol-2-yl)pyridin-3-yl)-3-(7-(cyclopropyl(methoxy)methyl)-2-methylthiazolo[5,4-b]pyridin-6-yl)urea] | 1 to 100 nM
21 | CCC(C)c1c(NC(=O)Nc2cnc(-n3nccn3)c(Cl)c2)cnc2sc(C)nc12 (single isomer, unassigned) [Compound 157a, 1-(7-(sec-Butyl)-2-methylthiazolo[5,4-b]pyridin-6-yl)-3-(5-chloro-6-(2H-1,2,3-triazol-2-yl)pyridin-3-yl)urea] | 1 to 100 nM

Source: patent publication US20190275012A9, “SUBSTITUTED THIAZOLO-PYRIDINE COMPOUNDS AS MALT1 INHIBITORS” (Lupin Limited, priority 2016, published 2019)
